Results published in patent publication US11963995B2, “Methods comprising desmopressin” (Ferring B.V., priority 2008, dated 2024).

Experiments:
[1] = system: adult patients with nocturia; test: Duration of initial period of undisturbed sleep, change from baseline to Day 28 (Part I); type: in vivo, human; settings: for Change from baseline to final visit (Day 28) in duration of initial period of undisturbed sleep, mean / Change from baseline to final visit (Day 28) in duration of initial period of undisturbed sleep, median: ITT, Part I; for median increase in initial period of sleep: baseline to Day 28
Description: As used herein, the term “first sleep period” refers to the time elapsed from bedtime to either first void or morning arising.
(§1) All treatments were administered orally once per night approximately 1 hour prior to bedtime; subjects were instructed to limit their fluid intake prior to drug self-administration. […] Randomization was to be stratified by age (<65, ≥65 years) and by the absence/presence of nocturnal polyuria, defined as a ratio of nighttime urine volume/24-hour urine volume 33%. To achieve the desired number of subjects within each stratum, enrollment of subjects in a particular stratum (age and/or presence/absence of nocturnal polyuria) could be halted. If this was necessary, all investigative sites were to be informed in writing at least 1 week in advance to stop screening in a population of subjects.
(§2) The secondary efficacy endpoints were: (1) durability of effect achieved in Part I; (2) change in initial period of undisturbed sleep, defined as the elapsed time in minutes from going to bed with the intention of sleeping to the time of awakening for the first nocturnal void; and (3) change in duration of total sleep time. Additional secondary endpoints were collected, e.g., change in nocturia-specific quality of life as assessed by scores on the International Consultation on Incontinence Modular Questionnaire—Noctuira and the Noctuira Quality of Life Questionnaire, change in quality of sleep as assessed by the global score of the Pittsburgh Sleep Quality Index, and change in overall quality of life as assessed by the short form—12v2. A description of the additional secondary efficacy endpoints and their accompanying data are not provided herein.
Missing values concerning number of nocturnal voids at Day 8, Day 15, Day 22, and Day 28 in Part I were imputed using last observation carried forward (LOCF). Missing values concerning sleep disturbance and urine volume (for average 24-hour urine volume and average nocturnal urine volume) were not imputed.

[2] = system: adult patients with nocturia; test: Duration of total sleep time, change from baseline to Day 28 (Part I); type: in vivo, human; settings: final visit (Day 28)
Description: as §1, §2
Total sleep time increased in all treatment groups in Part I; however, no pattern was observed by dose of desmopressin. Based on F-tests of effects, computed overall sleep duration and reported overall sleep duration were statistically significant predictors of change from baseline to Day 28 in total sleep time (p<0.0001).

[3] = relative to vasopressin; cited from earlier work
[4] = 10 ug, all males with monitoring
[5] = 10 ug, females over 50 years of age
[6] = 10 ug, females over 65 years of age
[7] = 25 ug, all males with monitoring
[8] = 25 ug, females over 50 years of age
[9] = 25 ug, females over 65 years of age
[10] = 50 ug, all males with monitoring
[11] = 50 ug, females over 50 years of age
[12] = 50 ug, females over 65 years of age
[13] = 100 ug, all males with monitoring
[14] = 100 ug, females over 50 years of age
[15] = 100 ug, females over 65 years of age

## NC(=O)CC[C@@H]1NC(=O)[C@H](Cc2ccccc2)NC(=O)[C@H](Cc2ccc(O)cc2)NC(=O)CCSSC[C@@H](C(=O)N2CCC[C@H]2C(=O)N[C@H](CCCN=C(N)N)C(=O)NCC(N)=O)NC(=O)[C@H](CC(N)=O)NC1=O [desmopressin]
[1]; 10 ug, all females
  Change from baseline to final visit (Day 28) in duration of initial period of undisturbed sleep, mean: 54 min
  Change from baseline to final visit (Day 28) in duration of initial period of undisturbed sleep, median: 46 min
[1]; 10 ug, all groups
  Change from baseline to final visit (Day 28) in duration of initial period of undisturbed sleep, mean: 51 min
  Change from baseline to final visit (Day 28) in duration of initial period of undisturbed sleep, median: 51 min
[1]; [4]
  Change from baseline to final visit (Day 28) in duration of initial period of undisturbed sleep, mean: 54 min
  Change from baseline to final visit (Day 28) in duration of initial period of undisturbed sleep, median: 59 min
[1]; 10 ug, all males
  Change from baseline to final visit (Day 28) in duration of initial period of undisturbed sleep, mean: 48 min
  Change from baseline to final visit (Day 28) in duration of initial period of undisturbed sleep, median: 56 min
[1]; [5]
  Change from baseline to final visit (Day 28) in duration of initial period of undisturbed sleep, mean: 33 min
  Change from baseline to final visit (Day 28) in duration of initial period of undisturbed sleep, median: 27 min
[1]; [6]
  Change from baseline to final visit (Day 28) in duration of initial period of undisturbed sleep, mean: 18 min
  Change from baseline to final visit (Day 28) in duration of initial period of undisturbed sleep, median: 46 min
[1]; 25 ug, all females
  Change from baseline to final visit (Day 28) in duration of initial period of undisturbed sleep, mean: 113 min
  Change from baseline to final visit (Day 28) in duration of initial period of undisturbed sleep, median: 95 min
[1]; 25 ug, all groups
  Change from baseline to final visit (Day 28) in duration of initial period of undisturbed sleep, mean: 83 min
  Change from baseline to final visit (Day 28) in duration of initial period of undisturbed sleep, median: 62 min
[1]; [7]
  Change from baseline to final visit (Day 28) in duration of initial period of undisturbed sleep, mean: 57 min
  Change from baseline to final visit (Day 28) in duration of initial period of undisturbed sleep, median: 54 min
[1]; 25 ug, all males
  Change from baseline to final visit (Day 28) in duration of initial period of undisturbed sleep, mean: 61 min
  Change from baseline to final visit (Day 28) in duration of initial period of undisturbed sleep, median: 55 min
[1]; 25 μg
  median increase in initial period of sleep: approximately 1 hour
[1]; [8]
  Change from baseline to final visit (Day 28) in duration of initial period of undisturbed sleep, mean: 122 min
  Change from baseline to final visit (Day 28) in duration of initial period of undisturbed sleep, median: 96 min
[1]; [9]
  Change from baseline to final visit (Day 28) in duration of initial period of undisturbed sleep, mean: 131 min
  Change from baseline to final visit (Day 28) in duration of initial period of undisturbed sleep, median: 113 min
[1]; 50 ug, all females
  Change from baseline to final visit (Day 28) in duration of initial period of undisturbed sleep, mean: 98 min
  Change from baseline to final visit (Day 28) in duration of initial period of undisturbed sleep, median: 70 min
[1]; 50 ug, all groups
  Change from baseline to final visit (Day 28) in duration of initial period of undisturbed sleep, mean: 85 min
  Change from baseline to final visit (Day 28) in duration of initial period of undisturbed sleep, median: 63 min
[1]; [10]
  Change from baseline to final visit (Day 28) in duration of initial period of undisturbed sleep, mean: 64 min
  Change from baseline to final visit (Day 28) in duration of initial period of undisturbed sleep, median: 59 min
[1]; 50 ug, all males
  Change from baseline to final visit (Day 28) in duration of initial period of undisturbed sleep, mean: 72 min
  Change from baseline to final visit (Day 28) in duration of initial period of undisturbed sleep, median: 55 min
[1]; 50 μg
  median increase in initial period of sleep: approximately 1 hour
[1]; [11]
  Change from baseline to final visit (Day 28) in duration of initial period of undisturbed sleep, mean: 83 min
  Change from baseline to final visit (Day 28) in duration of initial period of undisturbed sleep, median: 63 min
[1]; [12]
  Change from baseline to final visit (Day 28) in duration of initial period of undisturbed sleep, mean: 42 min
  Change from baseline to final visit (Day 28) in duration of initial period of undisturbed sleep, median: 30 min
[1]; 100 ug, all females
  Change from baseline to final visit (Day 28) in duration of initial period of undisturbed sleep, mean: 114 min
  Change from baseline to final visit (Day 28) in duration of initial period of undisturbed sleep, median: 93 min
[1]; 100 ug, all groups
  Change from baseline to final visit (Day 28) in duration of initial period of undisturbed sleep, mean: 107 min
  Change from baseline to final visit (Day 28) in duration of initial period of undisturbed sleep, median: 96 min
[1]; [13]
  Change from baseline to final visit (Day 28) in duration of initial period of undisturbed sleep, mean: 108 min
  Change from baseline to final visit (Day 28) in duration of initial period of undisturbed sleep, median: 116 min
[1]; 100 ug, all males
  Change from baseline to final visit (Day 28) in duration of initial period of undisturbed sleep, mean: 100 min
  Change from baseline to final visit (Day 28) in duration of initial period of undisturbed sleep, median: 101 min
[1]; [14]
  Change from baseline to final visit (Day 28) in duration of initial period of undisturbed sleep, mean: 108 min
  Change from baseline to final visit (Day 28) in duration of initial period of undisturbed sleep, median: 89 min
[1]; [15]
  Change from baseline to final visit (Day 28) in duration of initial period of undisturbed sleep, mean: 81 min
  Change from baseline to final visit (Day 28) in duration of initial period of undisturbed sleep, median: 70 min
[2]; 10 μg
  Total Sleep Time, Calculated Sleep Time, Change from Baseline, Mean: 9.7 min
  Total Sleep Time, Calculated Sleep Time, Change from Baseline, Median: 10.0 min
  Total Sleep Time, Reported Sleep Time, Change from Baseline, Mean: 7.8 min
  Total Sleep Time, Reported Sleep Time, Change from Baseline, Median: 10.0 min
[2]; 25 μg
  Total Sleep Time, Calculated Sleep Time, Change from Baseline, Mean: 19.7 min
  Total Sleep Time, Calculated Sleep Time, Change from Baseline, Median: 15.3 min
  Total Sleep Time, Reported Sleep Time, Change from Baseline, Mean: 15.9 min
  Total Sleep Time, Reported Sleep Time, Change from Baseline, Median: 10.0 min
[2]; 50 μg
  Total Sleep Time, Calculated Sleep Time, Change from Baseline, Mean: 24.2 min
  Total Sleep Time, Calculated Sleep Time, Change from Baseline, Median: 14.2 min
  Total Sleep Time, Reported Sleep Time, Change from Baseline, Mean: 24.9 min
  Total Sleep Time, Reported Sleep Time, Change from Baseline, Median: 20.0 min
[2]; 100 μg
  Total Sleep Time, Calculated Sleep Time, Change from Baseline, Mean: 9.7 min
  Total Sleep Time, Calculated Sleep Time, Change from Baseline, Median: 12.0 min
  Total Sleep Time, Reported Sleep Time, Change from Baseline, Mean: 19.0 min
  Total Sleep Time, Reported Sleep Time, Change from Baseline, Median: 20.0 min
[3]
  antidiuretic-to-vasopressor ratio, greater than vasopressin: 3000 fold
